Reference: patent US10611733B2, “Quinazolinone analogs and use of quinazolinone analogs for treating or preventing certain viral infections” (priority 2011, dated 2020)
Like-named read-outs stand apart in the source and are kept apart here.

Columns and labels:
[1] = test system: WNV; assay: WNV antiviral assay; assay type: cell-based, West Nile Virus; conditions: West Nile virus
Source text: (§1) The use of N-(2,3-dihydro-1H-inden-5-yl)-2-(4-oxo-3-phenyl-3,4-dihydroquinazolin-2-yl)thio) acetamide, a compound employed according to the present disclosure, for treating West Nile Virus has been disclosed. For example, please see Chung et al. A Cell Based Assay for the Identification of Lead Compounds with Anti-Viral Activity Against West Nile Virus, Probe Reports from the NIH Molecular Libraries Program[Internet]. Bethesda (Md.): National Center for Biotechnology Information (US); 2010-2010 Feb. 27 [updated 2010 Oct. 4], PMID: 21433390 [PubMed].

[2] = WNV antiviral assay; assay type: cell-based, West Nile Virus; conditions: read-out: TC50 (the source's name)
Source text: as §1

[3] = test system: HCV Con 1b (Replicon); assay: HCV Con 1b (Replicon) RNA end-point; assay type: cell-based, Hepatitis C Virus
Experimental: (§2) The reduction in HCV was determined with two assays using viral RNA endpoints. […] This cell line expresses a subgenomic section of the HCV genome containing NS2a, NS2b, NS3a, NS3b, NS4a, NS4b, NS5a and NS5b.

[4] = HCV Con 1b (Replicon) RNA end-point; assay type: cell-based, Hepatitis C Virus; conditions: HCV Con 1b subgenomic replicon cell line; HCV Con 1b replicon, RNA end-point; read-out: TC50 (the source's name)
Experimental: as §2

[5] = test system: HCV Con1b (Replicon); assay: HCV Con1b (Replicon) Luciferase end-point; assay type: cell-based, Hepatitis C Virus; conditions: for CC50: read-out: TC50 (the source's name)
[6] = HCV Con1b (Replicon) Luciferase end-point; assay type: cell-based, Hepatitis C Virus; conditions: HCV Con1b subgenomic replicon cell line, read-out: TC50 (the source's name)
[7] = test system: JEV; assay: JEV cell based virus CPE reduction assay; design: species or system Japanese Encephalitis Virus; conditions: for CC50: read-out: TC50 (the source's name)
Source text: as §1

[8] = JEV cell based virus CPE reduction assay; design: species or system Japanese Encephalitis Virus; conditions: read-out: TC50 (the source's name)
Source text: as §1

In the case of `O=C(CSc1nc2ccccc2c(=O)n1-c1ccccc1)Nc1ccc2c(c1)CCC2` [Example C1], the IC50 [1] is reported as 5 to 25 µM, the CC50 [2] is reported as at least 100 µM and the IC50 ([3]; Hepatitis C virus, HCV Con 1b replicon, RNA end-point) is reported as 5 to 25 µM. For the same compound, the “activity against Hepatitis C Virus” value ([3]; text statement referring to Table 1) was “activity was observed” and the CC50 [4] was at least 100 µM.
Work on `Cc1csc(NC(=O)CSc2nc3ccccc3c(=O)n2-c2ccc(Cl)c(Cl)c2)n1` [Example C8, 2-(3-(3,4-dichlorophenyl)-4-oxo-3,4-dihydroquinazolin-2-ylthio)-N-(4-methylthiazol-2-yl)acetamide] yielded an IC50 ([5]; Hepatitis C virus) of 1000 to 5000 nM, a CC50 [6] of at least 100 µM and an IC50 ([7]; Japanese encephalitis virus) of 5 to 25 µM. It also gave a CC50 [8] of at least 100 µM.
`COc1cccc2c(=O)n(-c3ccccc3)c(SCC(=O)Nc3ccc4c(c3)CCC4)nc12` [Example C17, N-indan-5-yl-2-(8-methoxy-4-oxo-3-phenyl(3-hydroquinazolin-2-ylthio))acetamide] showed an IC50 [5] of 1000 to 5000 nM, a CC50 [5] of at least 100 µM and an IC50 [7] of 5 to 25 µM. It also gave a CC50 [7] of at least 100 µM.
`O=C(CSc1nc2cccc(F)c2c(=O)n1-c1ccccc1)Nc1ccc2c(c1)CCC2` [Example C15, 2-(5-fluoro-4-oxo-3-phenyl(3-hydroquinazolin-2-ylthio))-N-indan-5-ylacetamide] gave an IC50 [7] of 5 to 25 µM, a CC50 [7] of at least 100 µM and an IC50 ([3]; HCV Con 1b replicon, RNA end-point) of 1 to 5 µM. For the same compound, the CC50 ([3]; HCV Con 1b replicon, RNA end-point, read-out: TC50 (the source's name)) was at least 100 µM.
For `Cc1csc(NC(=O)CSc2nc3ccccc3c(=O)n2-c2ccc(Cl)c(Cl)c2)n1` [Example C24, 2-[3-(3,4-dichlorophenyl)-4-oxo(3-hydroquinazolin-2-ylthio)]-N-(4-methyl(1,3-thiazol-2-yl))acetamide], the IC50 [5] was 1000 to 5000 nM, the CC50 [5] was at least 100 µM and the IC50 [7] was 5 to 25 µM. It also gave a CC50 [7] of at least 100 µM.
